Reference: patent US10316017B2, “COT modulators and methods of use thereof” (Gilead Sciences, Inc., priority 2015, dated 2019)

Assays:
[1] = tested on: TNFα production in LPS-stimulated human monocytes; experiment: Cot Monocyte TNFα Cell Based Assay; settings: Homo sapiens, Monocyte, TNFα in LPS-stimulated human monocytes; read-out: EC50 TNF
Method in brief: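 Percent-of-control values derive from TR-FRET ratios of TNFα in spun-down media, referenced to unstimulated and LPS-stimulated wells. Exposure: 1 h compound preincubation, then 50 pg/ml LPS for 4 h, both at 37 °C, with 0.5% final DMSO.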

[2] = biological target: T1, human Cot catalytic domain (30-397 amino acids) (Homo sapiens, UniProt P41279); experiment: High Throughput Cot Biochemical Assay (KinEASE TR-FRET); settings: Cot KinEASE TR-FRET (HTRF) biochemical assay, 400 μM ATP; read-out: IC50 HTRF
T1 construct: Purified recombinant human Cot catalytic domain (30-397 amino acids) was purchased from Cama Biosciences; purchased Cama Biosciences (so in the source)
Method in brief: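 Phosphorylation of 1 μM XL665-STK3 peptide by 5 nM Cot catalytic domain was measured by time-resolved FRET using a europium […] antibody. ATP was 400 μM; buffer was 10 mM MOPS pH 7.0 with Mg2+ and DTT.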

T1 sequence (P41279 30-397): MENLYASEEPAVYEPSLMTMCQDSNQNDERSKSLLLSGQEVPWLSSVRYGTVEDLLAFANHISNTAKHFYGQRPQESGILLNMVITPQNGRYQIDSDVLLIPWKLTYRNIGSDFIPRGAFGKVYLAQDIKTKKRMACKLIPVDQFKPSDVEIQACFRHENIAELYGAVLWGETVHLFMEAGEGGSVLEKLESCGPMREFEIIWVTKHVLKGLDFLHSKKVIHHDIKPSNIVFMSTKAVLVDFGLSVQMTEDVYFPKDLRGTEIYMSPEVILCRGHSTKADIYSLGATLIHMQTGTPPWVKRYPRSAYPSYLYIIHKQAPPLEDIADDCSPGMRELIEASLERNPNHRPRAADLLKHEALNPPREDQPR

SMILES | EC50 [1] [nM] | IC50 [2] [nM]
CC(C)(C)CNc1c(C#N)cnc2c(Br)cc(N[C@@H](c3cccc(C(N)=O)c3)c3cn(C4CC4)nn3)cc12 [Example 54, (S)-3-(((8-bromo-3-cyano-4-(neopentylamino)quinolin-6-yl)amino) (1-cyclopropyl-1H-1,2,3-triazol-4-yl)methyl)benzamide] | 267 | 2
CNC(=O)c1cccc([C@H](Nc2cc(C#N)c3ncc(C#N)c(NCC(C)(C)C)c3c2)c2cn(C3CC3)nn2)c1 [Example 55, (S)-3-((1-cyclopropyl-1H-1,2,3-triazol-4-yl) ((3,8-dicyano-4-(neopentylamino)quinolin-6-yl)amino)methyl)-N-methylbenzamide] | 414 | 2
CC(C)(C)CNc1c(C#N)cnc2c(C#N)cc(N[C@@H](c3cccc(C(=O)N4CC(F)(F)C4)c3)c3cn(C4CC4)nn3)cc12 [Example 56, (S)-6-(((1-cyclopropyl-1H-1,2,3-triazol-4-yl)(3-(3,3-difluoroazetidine-1-carbonyl)phenyl)methyl)amino)-4-(neopentylamino) quinoline-3,8-dicarbonitrile] | 184 | 3
CC(C)(C)CNc1c(C#N)cnc2c(C#N)cc(N[C@@H](c3cccc(C(=O)N4CC(O)C4)c3)c3cn(C4CC4)nn3)cc12 [Example 57, (S)-6-(((1-cyclopropyl-1H-1,2,3-triazol-4-yl) (3-(3-hydroxyazetidine-1-carbonyl)phenyl)methyl)amino)-4-(neopentylamino) quinoline-3,8-dicarbonitrile] | > 1000 | 3
[2H][C@](Nc1cc(-c2cnco2)c2ncc(C#N)c(NCC(C)(C)C)c2c1)(c1ccc(F)cc1)c1cn(C2CC2)nn1 [Example 63, (S)-6-(((1-cyclopropyl-1H-1,2,3-triazol-4-yl)(4-fluorophenyl)methyl-d)amino)-4-(neopentylamino)-8-(oxazol-5-yl)quinoline-3-carbonitrile] | > 1000 | 213
[2H][C@](Nc1cc(Cl)c2ncc(C#N)c(NC3CCOC(C)(C)C3)c2c1)(c1ccc(F)cc1)c1cn(C2CC2)nn1 (stereo partly drawn) [Example 64, 8-chloro-6-(((S)-(1-cyclopropyl-1H-1,2,3-triazol-4-yl)(4-fluorophenyl)methyl-d)amino)-4-((2,2-dimethyltetrahydro-2H-pyran-4-yl)amino) quinoline-3-carbonitrile] | > 1000 | 106
N#CCC[C@@H](Nc1c(C#N)cnc2c(Cl)cc(N[C@H](c3cn(C4COC4)nn3)c3ccccc3Cl)cc12)c1ccccc1 [Example 65, 8-chloro-6-(((S)-(2-chlorophenyl)(1-(oxetan-3-yl)-1H-3-triazol-4-yl)methyl)amino)-4-(((R)-3-cyano-1-phenylpropyl)amino) quinoline-3-carbonitrile] | 95 | 3
N#CCC[C@@H](Nc1c(C#N)cnc2c(Cl)cc(N[C@H](c3cn(CC#N)nn3)c3ccccc3Cl)cc12)c1ccccc1 [Example 66, 8-chloro-6-(((S)-(2-chlorophenyl)(1-(cyanomethyl)-1H-1,2,3-triazol-4-yl)methyl)amino)-4-(((R)-3-cyano-1-phenylpropyl)amino) quinoline-3-carbonitrile] | 96 | 5
N#CCC[C@@H](Nc1c(C#N)cnc2c(Cl)cc(N[C@H](c3cn(C(F)(F)CO)nn3)c3ccccc3Cl)cc12)c1ccccc1 [Example 67, 8-chloro-6-(((S)-(2-chlorophenyl)(1-(1,1-difluoro-2-hydroxyethyl)-1H-1,2,3-triazol-4-yl)methyl)amino)-4-(((R)-3-cyano-1-phenylpropyl)amino) quinoline-3-carbonitrile] | 41 | 2
CC(C)(C)CNc1c(C#N)cnc2c(C#N)cc(N[C@@H](c3cccc(NS(C)(=O)=O)c3)c3cn(C4CC4)nn3)cc12 [Example 68, (S)-N-(3-((1-cyclopropyl-1H-1,2,3-triazol-4-yl)((3,8-dicyano-4-(neopentylamino)quinolin-6-yl)amino)methyl)phenyl)methanesulfonamide] | > 1000 | 3
CN(c1cccc([C@H](Nc2cc(C#N)c3ncc(C#N)c(NCC(C)(C)C)c3c2)c2cn(C3CC3)nn2)c1)S(C)(=O)=O [Example 69, (S)-N-(3-((1-cyclopropyl-1H-1,2,3-triazol-4-yl)((3,8-dicyano-4-(neopentylamino)quinolin-6-yl)amino)methyl)phenyl)-N-methylmethanesulfonamide] | 124 | 3
CC(C)(C)CNc1c(C#N)cnc2c(Cl)cc(N[C@H](c3cn(C4(C(N)=O)CC4)nn3)c3ccccc3Cl)cc12 [Example 70, (S)-1-(4-(((8-chloro-3-cyano-4-(neopentylamino)quinolin-6-yl)amino) (2-chlorophenyl)methyl)-1H-1,2,3-triazol-1-yl) cyclopropane-1-carboxamide] | 124 | 9
N#CCC[C@@H](Nc1c(C#N)cnc2c(Cl)cc(N[C@H](c3cn(CC(N)=O)nn3)c3ccccc3Cl)cc12)c1ccccc1 [Example 71, 2-(4-((S)-((8-chloro-3-cyano-4-(((R)-3-cyano-1-phenylpropyl)amino)quinolin-6-yl)amino) (2-chlorophenyl)methyl)-1H-1,2,3-triazol-1-yl) acetamide] | 657 | 4
CC1(n2cc([C@@H](Nc3cc(Cl)c4ncc(C#N)c(N[C@H](CCC#N)c5ccccc5)c4c3)c3ccccc3Cl)nn2)CC1 [Example 72, 8-chloro-6-(((S)-(2-chlorophenyl)(1-(1-methylcyclopropyl)-1H-1,2,3-triazol-4-yl)methyl)amino)-4-(((R)-3-cyano-1-phenylpropyl)amino)quinoline-3-carbonitrile] | 66 | 2
N#CCC[C@@H](Nc1c(C#N)cnc2c(Cl)cc(N[C@H](c3cn(C4(C#N)CC4)nn3)c3ccccc3Cl)cc12)c1ccccc1 [Example 73, 8-chloro-6-(((S)-(2-chlorophenyl)(1-(1-cyanocyclopropyl)-1H-1,2,3-triazol-4-yl)methyl)amino)-4-(((R)-3-cyano-1-phenylpropyl)amino) quinoline-3-carbonitrile] | 34 | 2
[2H][C@](Nc1cc(Cl)c2ncc(C#N)c(N[C@H](CCC#N)c3ccccc3)c2c1)(c1ccc(Cl)cc1)c1cn(C2CC2)nn1 [Example 74, 8-chloro-6-(((S)-(4-chlorophenyl)(1-cyclopropyl-1H-1,2,3-triazol-4-yl)methyl-d)amino)-4-(((R)-3-cyano-1-phenylpropyl)amino) quinoline-3-carbonitrile] | 30 | 3
[2H][C@](Nc1cc(-c2ccnnc2)c2ncc(C#N)c(NCC(C)(C)C)c2c1)(c1ccc(F)cc1)c1cn(C2CC2)nn1 [Example 75, (S)-6-(((1-cyclopropyl-1H-1,2,3-triazol-4-yl)(4-fluorophenyl)methyl-d)amino)-4-(neopentylamino)-8-(pyridazin-4-yl)quinoline-3-carbonitrile] | > 1000 | 199
CC(=O)Nc1cccc([C@H](Nc2cc(C#N)c3ncc(C#N)c(NCC(C)(C)C)c3c2)c2cn(C3CC3)nn2)c1 [Example 76, (S)-N-(3-((1-cyclopropyl-1H-1,2,3-triazol-4-yl)((3,8-dicyano-4-(neopentylamino)quinolin-6-yl)amino)methyl)phenyl)acetamide] | 462 | 2
CC(C)(C)CNc1c(C#N)cnc2c(C#N)cc(N[C@@H](c3ccc(Cl)cc3)c3cn(C4CC4)nn3)cc12 [Example 77, (S)-6-(((4-chlorophenyl) (1-cyclopropyl-1H-1,2,3-triazol-4-yl)methyl)amino)-4-(neopentylamino) quinoline-3,8-dicarbonitrile] | 108 | 9
CC(=O)N(C)c1cccc([C@H](Nc2cc(Br)c3ncc(C#N)c(NCC(C)(C)C)c3c2)c2cn(C3CC3)nn2)c1 [Example 78, (S)-N-(3-(((8-bromo-3-cyano-4-(neopentylamino)quinolin-6-yl)amino) (1-cyclopropyl-1H-1,2,3-triazol-4-yl)methyl)phenyl)-N-methylacetamide] | 436 | 5
CC(=O)Nc1cccc([C@H](Nc2cc(Br)c3ncc(C#N)c(NCC(C)(C)C)c3c2)c2cn(C3CC3)nn2)c1 [Example 79, (S)-N-(3-(((8-bromo-3-cyano-4-(neopentylamino)quinolin-6-yl)amino) (1-cyclopropyl-1H-1,2,3-triazol-4-yl)methyl)phenyl)acetamide] | 278 | 8
[2H][C@](Nc1cc(Br)c2ncc(C#N)c(NCC(C)(C)C)c2c1)(c1ccc(Cl)cc1)c1cn(C2CC2)nn1 [Example 80, (S)-8-bromo-6-(((4-chlorophenyl)(1-cyclopropyl-1H-1,2,3-triazol-4-yl)methyl-d)amino)-4-(neopentylamino) quinoline-3-carbonitrile] | 395 | 31
[2H][C@](Nc1cc(-c2cncnc2)c2ncc(C#N)c(N[C@H](CC)c3ccccc3)c2c1)(c1ccc(F)cc1)c1cn(C2CC2)nn1 [Example 81, 6-(((S)-(1-cyclopropyl-1H-1,2,3-triazol-4-yl)(4-fluorophenyl)methyl-d)amino)-4-(((R)-1-phenylpropyl)amino)-8-(pyrimidin-5-yl)quinoline-3-carboitrile] | 316 | 20
